According to ChEMBL document CHEMBL4507326, “Data for DCP probe TP-030-2” (2021):

Legend:
[1] = target: T1, Epidermal growth factor receptor (Homo sapiens, UniProt P00533); experiment: Inhibition of Epidermal Growth Factor (EGF) at 10 µM in the Eurofins-Panlabs radioligand binding assay (Eurofins_assay_225510); settings: Compound concentration 10.0 uM
[2] = target: Serine/threonine-protein kinase PAK 4 (Homo sapiens, UniProt O96013); experiment: PAK4(PAK4CGY1) Takeda global kinase panel
[3] = target: Serine/threonine-protein kinase TBK1 (Homo sapiens, UniProt Q9UHD2); experiment: TBK1(TBK1CGF1) Takeda global kinase panel
[4] = target: Serine/threonine-protein kinase PLK3 (Homo sapiens, UniProt Q9H4B4); experiment: PLK3(PLK3PHY1) Takeda global kinase panel
[5] = target: Activated CDC42 kinase 1 (Homo sapiens, UniProt Q07912); experiment: Ack(TNK2LGF1) Takeda global kinase panel
[6] = target: T1, Epidermal growth factor receptor; experiment: EGFR(EGFRMGB1) Takeda global kinase panel
[7] = target: Tyrosine-protein kinase TXK (Homo sapiens, UniProt P42681); experiment: TXK(TXK1CGD5) Takeda global kinase panel
[8] = target: Beta-3 adrenergic receptor (Homo sapiens) (UniProt P13945); settings: Compound concentration 10.0 uM
[9] = target: Serine/threonine-protein kinase VRK2 (Homo sapiens, UniProt Q86Y07); experiment: VRK2(VRK2LGRI) Takeda global kinase panel
[10] = target: Beta-1 adrenergic receptor (Homo sapiens) (UniProt P08588); settings: Compound concentration 10.0 uM
[11] = species on record: Homo sapiens; settings: Compound concentration 10.0 uM
[12] = target: Ribosomal protein S6 kinase alpha-1 (Homo sapiens, UniProt Q15418); experiment: RSK1 [p90RSK(R6A2CGE1)] Takeda global kinase panel
[13] = target: hERG (KCNH2) (Homo sapiens, UniProt Q12809); experiment: Inhibition of Potassium Channel hERG at 10 µM in the Eurofins-Panlabs radioligand binding assay (Eurofins_assay_265900); design: ligand concentration 1.5 nM, non-specific ligand with concentration Astemizole, incubation time 60 min, incubation temperature 25 °C; settings: HEK-293 cells expressing human recombinant hERG, probe [3H] Astemizole, compound concentration 10 uM
[14] = target: Tyrosine-protein kinase Lck (Homo sapiens, UniProt P06239); experiment: Lck(LCK1LGF1) Takeda global kinase panel
[15] = target: Dual specificity protein kinase CLK4 (Homo sapiens, UniProt Q9HAZ1); experiment: CLK4(CLK4IGF1) Takeda global kinase panel
[16] = target: Bromodomain testis-specific protein (Homo sapiens, UniProt Q58F21); experiment: BRDT(BRDTLGRC) Takeda global kinase panel
[17] = target: D(1B) dopamine receptor (Homo sapiens) (UniProt P21918); experiment: Dopamine D5 Eurofins-Panlabs radioligand binding assay; settings: Compound concentration 10.0 uM
[18] = target: Serine/threonine-protein kinase Nek3 (Homo sapiens, UniProt P51956); experiment: Nek3(NEK3LGRI) Takeda global kinase panel
[19] = target: Serine/threonine-protein kinase MRCK alpha (Homo sapiens, UniProt Q5VT25); experiment: MRCKalpha(CD4ALGY1) Takeda global kinase panel
[20] = target: Protein kinase C delta type (Homo sapiens, UniProt Q05655); experiment: PKCdelta(PRKDPFP1) Takeda global kinase panel
[21] = target: Eukaryotic translation initiation factor 2-alpha kinase 3 (Homo sapiens, UniProt Q9NZJ5); experiment: PERK [PEK(EIK3CGQ1)] Takeda global kinase panel
[22] = target: Homeodomain-interacting protein kinase 2 (Homo sapiens, UniProt Q9H2X6); experiment: HIPK2(HIP2LGY1) Takeda global kinase panel
[23] = target: Vascular endothelial growth factor receptor 2 (Homo sapiens, UniProt P35968); experiment: KDR(KDR1CGY1) Takeda global kinase panel
[24] = target: Tyrosine-protein kinase ITK/TSK (Homo sapiens, UniProt Q08881); experiment: ITK(ITK1CGF1) Takeda global kinase panel
[25] = target: Alpha-2C adrenergic receptor (Homo sapiens) (UniProt P18825); settings: Compound concentration 10.0 uM
[26] = target: Ephrin type-B receptor 4 (Homo sapiens, UniProt P54760); experiment: EphB4(EPB4LGY1) Takeda global kinase panel
[27] = target: Dual specificity protein kinase CLK1 (Homo sapiens, UniProt P49759); experiment: CLK1(CLK1LGF1) Takeda global kinase panel
[28] = target: Serine/threonine-protein kinase H1 (Homo sapiens, UniProt P11801); experiment: PSKH1(PSH1LGRH) Takeda global kinase panel
[29] = target: Ankyrin repeat and protein kinase domain-containing protein 1 (Homo sapiens, UniProt Q8NFD2); experiment: SgK288(ANK1LGRL) Takeda global kinase panel
[30] = target: Cyclin-dependent kinase 5 (Homo sapiens, UniProt Q00535); experiment: CDK5(CDK5CGS1) Takeda global kinase panel
[31] = species on record: Rattus norvegicus; settings: Compound concentration 10.0 uM
[32] = target: Acetylcholine receptor subunit alpha (Homo sapiens) (UniProt P02708); experiment: Inhibition of Nicotinic Acetylcholine D1, Bungarotoxin at 10 µM in the Eurofins-Panlabs radioligand binding assay (Eurofins_assay_258700); settings: Compound concentration 10.0 uM
[33] = target: Alpha-1B adrenergic receptor (Homo sapiens) (UniProt P35368); settings: Compound concentration 10.0 uM
[34] = target: Dual specificity mitogen-activated protein kinase kinase 1 (Homo sapiens, UniProt Q02750); experiment: MEK1 [MAP2K1(M2K1LGF1)] Takeda global kinase panel
[35] = target: D(3) dopamine receptor (Homo sapiens) (UniProt P35462); settings: Compound concentration 10.0 uM
[36] = target: Fibroblast growth factor receptor 4 (Homo sapiens, UniProt P22455); experiment: FGFR4(FGF4LGF1) Takeda global kinase panel
[37] = target: Ephrin type-A receptor 3 (Homo sapiens, UniProt P29320); experiment: EphA3(EPA3LGD5) Takeda global kinase panel
[38] = target: Myosin light chain kinase (Homo sapiens, UniProt Q32MK0); experiment: caMLCK(MYL3LGF1) Takeda global kinase panel
[39] = target: Estrogen receptor (Homo sapiens) (UniProt P03372); settings: Compound concentration 10.0 uM
[40] = target: Voltage-dependent N-type calcium channel subunit alpha-1B (Homo sapiens) (UniProt Q00975); experiment: Inhibition of Calcium Channel N-Type at 10 µM in the Eurofins-Panlabs radioligand binding assay (Eurofins_assay_216000); settings: Rattus norvegicus; Compound concentration 10.0 uM
[41] = target: B2 bradykinin receptor (Homo sapiens) (UniProt P30411); settings: Compound concentration 10.0 uM
[42] = target: Muscarinic acetylcholine receptor M2 (Homo sapiens) (UniProt P08172); settings: Compound concentration 10.0 uM
[43] = target: Tyrosine-protein kinase ABL2 (Homo sapiens, UniProt P42684); experiment: Arg(ABL2LGF1) Takeda global kinase panel
[44] = target: Casein kinase I isoform gamma-3 (Homo sapiens, UniProt Q9Y6M4); experiment: CK1gamma3(C1G3LGI5) Takeda global kinase panel
[45] = target: 5-hydroxytryptamine receptor 2A (Homo sapiens, UniProt P28223); experiment: GPCRScan assay: inhibition of 5-HT2A; design: radioligand conc. used [nm] 1.2 – 2.4, parental cells HEKT
5-hydroxytryptamine receptor 2A, sequence (P28223 whole entry): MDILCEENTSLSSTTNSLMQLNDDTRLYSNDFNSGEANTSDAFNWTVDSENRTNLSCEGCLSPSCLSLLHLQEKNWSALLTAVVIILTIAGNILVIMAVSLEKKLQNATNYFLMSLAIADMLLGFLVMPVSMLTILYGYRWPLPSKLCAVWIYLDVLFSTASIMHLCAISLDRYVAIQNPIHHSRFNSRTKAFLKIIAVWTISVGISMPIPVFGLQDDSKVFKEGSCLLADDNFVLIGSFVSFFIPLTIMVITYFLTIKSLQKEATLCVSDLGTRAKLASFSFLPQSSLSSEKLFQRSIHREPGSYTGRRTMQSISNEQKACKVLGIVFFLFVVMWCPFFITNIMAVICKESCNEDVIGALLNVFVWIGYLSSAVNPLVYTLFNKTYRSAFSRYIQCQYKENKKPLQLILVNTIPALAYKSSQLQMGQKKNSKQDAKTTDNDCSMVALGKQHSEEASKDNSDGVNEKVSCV

T1 sequence (P00533 whole entry): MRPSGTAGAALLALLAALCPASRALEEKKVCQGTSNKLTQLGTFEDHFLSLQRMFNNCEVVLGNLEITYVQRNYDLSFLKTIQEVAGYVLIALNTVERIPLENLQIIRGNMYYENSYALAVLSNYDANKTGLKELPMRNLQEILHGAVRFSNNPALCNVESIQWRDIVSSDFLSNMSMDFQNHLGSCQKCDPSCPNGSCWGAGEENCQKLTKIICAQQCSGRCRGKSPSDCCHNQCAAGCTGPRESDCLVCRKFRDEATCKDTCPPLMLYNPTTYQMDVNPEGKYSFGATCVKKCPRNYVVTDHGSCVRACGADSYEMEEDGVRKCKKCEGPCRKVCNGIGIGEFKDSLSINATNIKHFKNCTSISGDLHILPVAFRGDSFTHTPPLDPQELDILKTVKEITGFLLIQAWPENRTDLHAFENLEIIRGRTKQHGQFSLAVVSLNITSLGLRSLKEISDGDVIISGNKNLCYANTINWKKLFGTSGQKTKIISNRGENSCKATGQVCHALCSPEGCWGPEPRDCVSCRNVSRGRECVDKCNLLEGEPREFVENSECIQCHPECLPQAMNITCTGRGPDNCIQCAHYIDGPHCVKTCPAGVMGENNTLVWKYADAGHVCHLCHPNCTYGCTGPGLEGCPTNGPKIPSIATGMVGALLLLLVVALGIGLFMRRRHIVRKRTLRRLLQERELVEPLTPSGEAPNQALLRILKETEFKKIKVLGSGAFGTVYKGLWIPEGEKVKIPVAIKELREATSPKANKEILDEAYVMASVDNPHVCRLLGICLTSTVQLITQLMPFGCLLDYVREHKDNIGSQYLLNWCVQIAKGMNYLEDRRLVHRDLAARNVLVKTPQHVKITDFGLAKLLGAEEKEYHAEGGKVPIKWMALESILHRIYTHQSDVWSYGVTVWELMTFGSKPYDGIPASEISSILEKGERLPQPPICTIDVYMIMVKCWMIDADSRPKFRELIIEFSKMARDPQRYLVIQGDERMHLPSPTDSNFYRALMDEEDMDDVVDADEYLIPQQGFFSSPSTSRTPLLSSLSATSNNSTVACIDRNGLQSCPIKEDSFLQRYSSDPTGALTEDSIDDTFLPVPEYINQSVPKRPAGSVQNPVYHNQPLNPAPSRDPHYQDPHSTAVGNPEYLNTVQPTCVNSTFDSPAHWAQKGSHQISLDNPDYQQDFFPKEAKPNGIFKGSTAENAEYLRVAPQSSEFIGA
Ephrin type-A receptor 3, sequence (P29320 whole entry): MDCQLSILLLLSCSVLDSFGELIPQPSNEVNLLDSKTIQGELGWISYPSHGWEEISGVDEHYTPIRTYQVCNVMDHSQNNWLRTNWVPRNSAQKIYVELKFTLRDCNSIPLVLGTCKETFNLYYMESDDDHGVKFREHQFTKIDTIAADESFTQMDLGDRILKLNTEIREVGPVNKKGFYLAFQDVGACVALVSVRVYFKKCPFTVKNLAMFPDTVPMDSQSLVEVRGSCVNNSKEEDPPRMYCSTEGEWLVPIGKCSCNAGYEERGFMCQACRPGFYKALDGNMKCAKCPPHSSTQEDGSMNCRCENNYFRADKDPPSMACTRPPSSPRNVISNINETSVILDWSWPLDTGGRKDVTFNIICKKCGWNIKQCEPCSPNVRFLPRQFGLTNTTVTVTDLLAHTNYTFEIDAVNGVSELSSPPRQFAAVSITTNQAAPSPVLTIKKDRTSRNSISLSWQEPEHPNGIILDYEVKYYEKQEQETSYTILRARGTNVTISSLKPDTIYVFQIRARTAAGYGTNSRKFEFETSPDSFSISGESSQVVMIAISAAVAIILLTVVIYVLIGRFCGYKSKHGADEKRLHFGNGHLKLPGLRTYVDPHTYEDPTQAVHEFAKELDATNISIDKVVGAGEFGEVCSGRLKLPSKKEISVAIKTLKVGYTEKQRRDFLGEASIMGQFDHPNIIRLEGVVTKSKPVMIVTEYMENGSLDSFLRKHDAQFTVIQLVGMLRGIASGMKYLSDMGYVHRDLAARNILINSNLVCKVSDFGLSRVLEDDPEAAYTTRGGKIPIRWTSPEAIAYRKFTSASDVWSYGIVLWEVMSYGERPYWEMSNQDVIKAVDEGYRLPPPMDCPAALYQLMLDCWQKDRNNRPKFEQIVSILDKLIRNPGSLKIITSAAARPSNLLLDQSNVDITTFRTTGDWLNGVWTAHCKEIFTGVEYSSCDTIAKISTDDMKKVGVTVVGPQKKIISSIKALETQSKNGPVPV
Tyrosine-protein kinase ITK/TSK, sequence (Q08881 whole entry): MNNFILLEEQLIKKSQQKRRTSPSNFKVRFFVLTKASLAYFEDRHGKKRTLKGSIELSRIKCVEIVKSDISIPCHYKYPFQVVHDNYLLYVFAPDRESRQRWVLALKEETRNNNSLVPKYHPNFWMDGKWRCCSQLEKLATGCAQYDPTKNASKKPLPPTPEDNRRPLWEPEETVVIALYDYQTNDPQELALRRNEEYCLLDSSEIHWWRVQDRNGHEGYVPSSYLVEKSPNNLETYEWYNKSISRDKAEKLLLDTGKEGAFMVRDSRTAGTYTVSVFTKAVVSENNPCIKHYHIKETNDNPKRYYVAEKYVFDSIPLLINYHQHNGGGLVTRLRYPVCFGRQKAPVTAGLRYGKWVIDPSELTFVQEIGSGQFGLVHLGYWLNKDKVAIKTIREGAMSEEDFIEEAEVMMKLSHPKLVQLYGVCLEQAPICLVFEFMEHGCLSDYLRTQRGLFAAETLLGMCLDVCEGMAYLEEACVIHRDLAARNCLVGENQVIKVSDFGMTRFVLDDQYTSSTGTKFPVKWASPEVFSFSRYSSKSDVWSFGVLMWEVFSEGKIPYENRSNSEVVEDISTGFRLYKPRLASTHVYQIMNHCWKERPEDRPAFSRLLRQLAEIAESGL
Dual specificity protein kinase CLK4, sequence (Q9HAZ1 whole entry): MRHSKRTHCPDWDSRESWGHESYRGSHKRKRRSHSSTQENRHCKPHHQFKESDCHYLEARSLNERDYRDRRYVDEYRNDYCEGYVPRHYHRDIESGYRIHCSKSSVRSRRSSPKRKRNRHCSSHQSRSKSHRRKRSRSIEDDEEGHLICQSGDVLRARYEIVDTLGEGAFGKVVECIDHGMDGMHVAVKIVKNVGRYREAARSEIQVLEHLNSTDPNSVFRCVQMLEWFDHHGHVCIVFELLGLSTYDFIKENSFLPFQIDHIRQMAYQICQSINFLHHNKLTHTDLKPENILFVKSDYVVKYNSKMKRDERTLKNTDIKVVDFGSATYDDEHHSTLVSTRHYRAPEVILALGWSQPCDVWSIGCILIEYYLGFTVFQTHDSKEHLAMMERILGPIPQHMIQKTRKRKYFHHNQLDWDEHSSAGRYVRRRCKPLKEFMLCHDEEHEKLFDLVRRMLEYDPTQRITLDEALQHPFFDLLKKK
Fibroblast growth factor receptor 4, sequence (P22455 whole entry): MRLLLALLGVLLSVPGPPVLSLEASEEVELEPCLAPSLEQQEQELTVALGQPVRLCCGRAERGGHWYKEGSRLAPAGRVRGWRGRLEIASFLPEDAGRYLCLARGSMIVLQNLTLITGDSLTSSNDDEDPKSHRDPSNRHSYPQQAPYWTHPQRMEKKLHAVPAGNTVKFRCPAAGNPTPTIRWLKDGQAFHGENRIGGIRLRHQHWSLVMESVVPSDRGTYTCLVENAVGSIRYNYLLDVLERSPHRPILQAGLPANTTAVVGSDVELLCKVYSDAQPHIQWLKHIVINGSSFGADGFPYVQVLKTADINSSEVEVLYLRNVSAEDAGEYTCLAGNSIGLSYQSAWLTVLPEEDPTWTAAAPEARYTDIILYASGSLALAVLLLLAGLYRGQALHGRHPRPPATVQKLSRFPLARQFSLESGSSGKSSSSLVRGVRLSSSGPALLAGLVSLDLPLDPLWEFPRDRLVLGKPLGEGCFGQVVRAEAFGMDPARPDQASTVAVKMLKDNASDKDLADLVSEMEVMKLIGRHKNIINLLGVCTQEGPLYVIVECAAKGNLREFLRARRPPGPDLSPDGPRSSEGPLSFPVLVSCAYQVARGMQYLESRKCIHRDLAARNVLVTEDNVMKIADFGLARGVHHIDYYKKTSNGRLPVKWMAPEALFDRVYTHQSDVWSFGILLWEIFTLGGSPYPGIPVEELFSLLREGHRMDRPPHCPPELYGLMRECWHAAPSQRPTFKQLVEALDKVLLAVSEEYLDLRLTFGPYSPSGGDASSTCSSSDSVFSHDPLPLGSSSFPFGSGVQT
Cyclin-dependent kinase 5, sequence (Q00535 whole entry): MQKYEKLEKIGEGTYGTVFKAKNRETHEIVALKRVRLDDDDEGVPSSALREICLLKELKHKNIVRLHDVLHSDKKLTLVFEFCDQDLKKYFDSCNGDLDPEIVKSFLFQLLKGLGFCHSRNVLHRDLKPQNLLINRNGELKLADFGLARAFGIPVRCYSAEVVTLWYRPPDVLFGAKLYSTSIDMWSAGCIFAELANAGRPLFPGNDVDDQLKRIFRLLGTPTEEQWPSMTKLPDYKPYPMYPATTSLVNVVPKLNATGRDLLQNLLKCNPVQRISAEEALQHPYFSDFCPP

## CN1C(=O)[C@@H](N2CCc3c(nn(Cc4ccccc4)c3Br)C2=O)COc2ccccc21 [TP-030-2]
[1]
  inhibition: 2%
[2]
  IC50: 1000 nM
[3]
  IC50: 1000 nM
[4]
  IC50: 1000 nM
[5]
  IC50: 1000 nM
[6]
  IC50: 1000 nM
[7]
  IC50: 1000 nM
[8]
  inhibition: 39.3%
[9]
  IC50: 1000 nM
[10]
  inhibition: 12%
[11]
  inhibition: 16%
[12]
  IC50: 1000 nM
[13]
  inhibition at 60 min, 10 µM: 7% (not active)
[14]
  IC50: 1000 nM
[15]
  IC50: 1000 nM
[16]
  IC50: 1000 nM
[17]
  inhibition: 2%
[18]
  IC50: 1000 nM
[19]
  IC50: 1000 nM
[20]
  IC50: 1000 nM
[21]
  IC50: 1000 nM
[22]
  IC50: 1000 nM
[23]
  IC50: 1000 nM
[24]
  IC50: 1000 nM
[25]
  inhibition: 71.3%
[26]
  IC50: 1000 nM
[27]
  IC50: 1000 nM
[28]
  IC50: 1000 nM
[29]
  IC50: 1000 nM
[30]
  IC50: 1000 nM
[31]
  inhibition: 82.2%
[32]
  inhibition: -2%
[33]
  inhibition: -0.19%
[34]
  IC50: 1000 nM
[35]
  inhibition: 14%
[36]
  IC50: 1000 nM
[37]
  IC50: 1000 nM
[38]
  IC50: 1000 nM
[39]
  inhibition: 10%
[40]
  inhibition: -1%
[41]
  inhibition: 0%
[42]
  inhibition: 2%
[43]
  IC50: 1000 nM
[44]
  IC50: 1000 nM
[45]; read-out: Ki
  Ki: 2070 nM
[45]; read-out: pKi (converted)
  Ki: 2040 nM
